Assay results as given in patent publication US5405849A, “Angiotensin II receptor blocking 2,3,6 substituted quinazolinones” (American Cyanamid Company, priority 1993, dated 1995).

Legend:
angiotensin II receptors = experiment: Angiotensin II receptor binding (displacement of 3H-angiotensin II), rat adrenocortical microsomes; settings: 2 nM 3H-angiotensin II
Procedure: The source of the angiotensin II receptors utilized in the screen is from rat adrenocortical microsomes. The cortices are placed in ice cold sucrose buffer (0.2 m sucrose, 1 mm EDTA, 10 mm Trizma base, pH 7.4) and homogenized in a chilled ground glass tissue grinder. The homogenate is centrifuged at 3000×g for 10 min. and the resultant supernatant is decanted through cheesecloth and centrifuged at 12,000×g for 3 min. […] Binding assays are performed by incubating aliquots of freshly prepared microsomes in the absence or presence of compound (40 uM final concentration). Ten minutes later, ^3 H-angiotensin II is added to each tube (2 nM final concentration) and incubated for 60 minutes at […]. The reaction is terminated by the addition of 3 ml of cold assay buffer without albumin and the bound and free radioactivity is separated rapidly through glass-fiber filters prewetted with assay buffer. After two additional 3 ml rinses, the filters are placed in scintillation fluid and counted in a scintillation counter to determine trapped radioactivity.

[1] = test system: angiotensin II (AII) vasopressor response; experiment: AII challenge: antagonism of the vasopressor response of angiotensin II in conscious Okamoto-Aoki SHR; format: in vivo, rat (Okamoto-Aoki SHR); settings: for inhibition in vivo at 1 mg/kg / inhibition in vivo at 2 mg/kg: Rattus norvegicus, iv
In short: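 Conscious male Okamoto-Aoki spontaneously hypertensive rats, 16-20 weeks old and about 330 g, received caudal arterial and venous cannulae under local 2% procaine anesthesia. They were kept upright in restraining cages while pulsatile blood pressure was recorded by pressure transducer. The systolic pressure rise to i.v. angiotensin II was measured before and after test compound dosing. Inhibition was expressed relative to each rat's predose response, taken as 100%.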

For `CCCCc1nc2ccc(C(OC)c3ccccc3)cc2c(=O)n1Cc1ccc(-c2ccccc2-c2nnn[nH]2)cc1` (stereo not shown) [Example 56, 2-Butyl-6-(methoxyphenylmethyl)-3-[[2'-(1H-tetrazol-5-yl)[1,1'-biphenyl]-4-yl]methyl]-4(3H)-quinazolinone], the IC50 (angiotensin II receptors) was 8.6 nM, the “Response change (systolic BP increase to AII)” value ([1]; 1 mg/kg iv, AII .025 ug/kg, 15 min) was 18 mmHg and the “Response change (systolic BP increase to AII)” value ([1]; 1 mg/kg iv, AII .025 ug/kg, 30 min) was 27 mmHg. The “Response change (systolic BP increase to AII)” value ([1]; 1 mg/kg iv, AII .025 ug/kg, 60 min) was 20 mmHg, the “Response change (systolic BP increase to AII)” value ([1]; 1 mg/kg iv, AII .05 ug/kg, 15 min) was 15 mmHg and the “Response change (systolic BP increase to AII)” value ([1]; 1 mg/kg iv, AII .05 ug/kg, 30 min) was 15 mmHg. The “Response change (systolic BP increase to AII)” value ([1]; 1 mg/kg iv, AII .05 ug/kg, 60 min) was 20 mmHg, the “Response change (systolic BP increase to AII)” value ([1]; 1 mg/kg iv, AII .1 ug/kg, 15 min) was 15 mmHg and the “Response change (systolic BP increase to AII)” value ([1]; 1 mg/kg iv, AII .1 ug/kg, 30 min) was 20 mmHg. The “Response change (systolic BP increase to AII)” value ([1]; 1 mg/kg iv, AII .1 ug/kg, 60 min) was 30 mmHg, the “Response change (systolic BP increase to AII)” value ([1]; 2 mg/kg iv, AII .025 ug/kg, 90 min) was 10 mmHg and the “Response change (systolic BP increase to AII)” value ([1]; 2 mg/kg iv, AII .025 ug/kg, 120 min) was 20 mmHg. For the same molecule, the “Response change (systolic BP increase to AII)” value ([1]; 2 mg/kg iv, AII .025 ug/kg, 150 min) was 15 mmHg, the “Response change (systolic BP increase to AII)” value ([1]; 2 mg/kg iv, AII .05 ug/kg, 90 min) was 15 mmHg and the “Response change (systolic BP increase to AII)” value ([1]; 2 mg/kg iv, AII .05 ug/kg, 120 min) was 15 mmHg. The “Response change (systolic BP increase to AII)” value ([1]; 2 mg/kg iv, AII .05 ug/kg, 150 min) was 10 mmHg, the “Response change (systolic BP increase to AII)” value ([1]; 2 mg/kg iv, AII .1 ug/kg, 90 min) was 5 mmHg and the “Response change (systolic BP increase to AII)” value ([1]; 2 mg/kg iv, AII .1 ug/kg, 120 min) was 15 mmHg. For the same molecule, the “Response change (systolic BP increase to AII)” value ([1]; 2 mg/kg iv, AII .1 ug/kg, 150 min) was 20 mmHg, the inhibition in vivo at 1 mg/kg ([1]; 0.25 h, 1 mg/kg iv, AII .025 ug/kg, 15 min) was 40% and the inhibition in vivo at 1 mg/kg ([1]; 0.25 h, 1 mg/kg iv, AII .05 ug/kg, 15 min) was 57%. The inhibition in vivo at 1 mg/kg ([1]; 0.25 h, 1 mg/kg iv, AII .1 ug/kg, 15 min) was 57%, the inhibition in vivo at 1 mg/kg ([1]; 0.5 h, 1 mg/kg iv, AII .025 ug/kg, 30 min) was 27% and the inhibition in vivo at 1 mg/kg ([1]; 0.5 h, 1 mg/kg iv, AII .05 ug/kg, 30 min) was 57%. For the same molecule, the inhibition in vivo at 1 mg/kg ([1]; 0.5 h, 1 mg/kg iv, AII .1 ug/kg, 30 min) was 43%, the inhibition in vivo at 1 mg/kg ([1]; 1 h, 1 mg/kg iv, AII .025 ug/kg, 60 min) was 33% and the inhibition in vivo at 1 mg/kg ([1]; 1 h, 1 mg/kg iv, AII .05 ug/kg, 60 min) was 43%. For the same molecule, the inhibition in vivo at 1 mg/kg ([1]; 1 h, 1 mg/kg iv, AII .1 ug/kg, 60 min) was 14%, the inhibition in vivo at 2 mg/kg ([1]; 1.5 h, 2 mg/kg iv, AII .025 ug/kg, 90 min) was 67% and the inhibition in vivo at 2 mg/kg ([1]; 1.5 h, 2 mg/kg iv, AII .05 ug/kg, 90 min) was 57%. The inhibition in vivo at 2 mg/kg ([1]; 1.5 h, 2 mg/kg iv, AII .1 ug/kg, 90 min) was 86%, the inhibition in vivo at 2 mg/kg ([1]; 2 h, 2 mg/kg iv, AII .025 ug/kg, 120 min) was 33% and the inhibition in vivo at 2 mg/kg ([1]; 2 h, 2 mg/kg iv, AII .05 ug/kg, 120 min) was 57%. It also gave an inhibition in vivo at 2 mg/kg ([1]; 2 h, 2 mg/kg iv, AII .1 ug/kg, 120 min) of 57%, an inhibition in vivo at 2 mg/kg ([1]; 2.5 h, 2 mg/kg iv, AII .025 ug/kg, 150 min) of 50% and an inhibition in vivo at 2 mg/kg ([1]; 2.5 h, 2 mg/kg iv, AII .05 ug/kg, 150 min) of 71%. The inhibition in vivo at 2 mg/kg ([1]; 2.5 h, 2 mg/kg iv, AII .1 ug/kg, 150 min) was 43%.
